Experimental data: article PMC11879280, “Antimicrobial activity of peptoids against Metallo-β-lactamase-producing Klebsiella pneumoniae, Acinetobacter baumannii, Pseudomonas aeruginosa, and other WHO priority pathogens, including Candida auris” (Journal of Applied Microbiology, 2025)
Where two headings read alike, the source gives them in different places. Square brackets hold non-standard residues; d marks the D form. Ends that are not written are not given here. Peptide text beside a SMILES is read from it. N(tridecyl)Gly = CCCCCCCCCCCCCNCC(=O)O; Nspe = C[C@H](NCC(=O)O)c1ccccc1; Nlys = NCCCCNCC(=O)O

Legend:
[1] = test system: ESKAPEE pathogens (all bacteria); test: Geometric mean MIC, therapeutic index and selectivity ratio, all bacteria; format: cell-based; settings: for Geometric mean MIC, all bacteria: across the 23 ESKAPEE strains
In short: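 Inoculum 5 × 10^5 CFU ml^−1 in CAMHB for antibiotics or MHB for peptidomimetics; incubated 37°C, 120 rpm, 16–20 h. Suspensions plated on Trypticase Soya Agar with phosphatidylcholine and Tween 80 for MBC/MFC. Geometric mean MIC computed across pathogens; therapeutic index calculated by formula.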

S. aureus 117 = test system: S. aureus 117
In short: (§1)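 Growth inhibition was scored after 16–20 h shaking incubation (37°C, 120 rpm) of 5 × 10^5 CFU ml^−1 suspensions in Mueller–Hinton broth, cation-adjusted when antibiotics were tested.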

S. aureus 105 = test system: S. aureus 105
In short: as §1

A. baumannii 006 = test system: A. baumannii 006
In short: as §1

P. aeruginosa 33 = test system: P. aeruginosa 33
In short: as §1

P. aeruginosa AR-1270 = test system: P. aeruginosa AR-1270
In short: as §1

A. baumannii 005 = test system: A. baumannii 005
In short: as §1

S. aureus 04 = test system: S. aureus 04
In short: as §1

A. baumannii 007 = test system: A. baumannii 007
In short: as §1

K. pneumoniae JIE2713 = test system: K. pneumoniae JIE2713
In short: as §1

P. aeruginosa 216 = test system: P. aeruginosa 216
In short: as §1

En. cloacae 001 = test system: En. cloacae 001
In short: as §1

E. coli 005 = test system: E. coli 005
In short: as §1

A. baumannii ATCC 19 606 = test system: A. baumannii ATCC 19 606
In short: as §1

K. pneumoniae JIE2709 = test system: K. pneumoniae JIE2709
In short: as §1

A. baumannii 008 = test system: A. baumannii 008
In short: as §1

K. pneumoniae JIE4212 = test system: K. pneumoniae JIE4212
In short: as §1

[2] = test system: Enteroc. faecalis NCTC 13 379
In short: as §1

E. coli 0010 = test system: E. coli 0010
In short: as §1

E. coli 0015 = test system: E. coli 0015
In short: as §1

E. coli 0011 = test system: E. coli 0011
In short: as §1

En. cloacae 005 = test system: En. cloacae 005
In short: as §1

S. aureus 38 = test system: S. aureus 38
In short: as §1

En. cloacae 003 = test system: En. cloacae 003
In short: as §1

[3] = S. aureus 117, MHB (melimine/Mel4 with 0.2% BSA, 0.01% acetic acid), mean MIC
[4] = S. aureus 105, MHB (melimine/Mel4 with 0.2% BSA, 0.01% acetic acid), mean MIC
[5] = A. baumannii 006, MHB (melimine/Mel4 with 0.2% BSA, 0.01% acetic acid), mean MIC
[6] = P. aeruginosa 33, MHB (melimine/Mel4 with 0.2% BSA, 0.01% acetic acid), mean MIC
[7] = P. aeruginosa AR-1270, MHB (melimine/Mel4 with 0.2% BSA, 0.01% acetic acid), mean MIC
[8] = A. baumannii 005, MHB (melimine/Mel4 with 0.2% BSA, 0.01% acetic acid), mean MIC
[9] = S. aureus 004, MHB (melimine/Mel4 with 0.2% BSA, 0.01% acetic acid), mean MIC
[10] = A. baumannii 007, MHB (melimine/Mel4 with 0.2% BSA, 0.01% acetic acid), mean MIC
[11] = K. pneumoniae JIE2713, MHB (melimine/Mel4 with 0.2% BSA, 0.01% acetic acid), mean MIC
[12] = P. aeruginosa 216, MHB (melimine/Mel4 with 0.2% BSA, 0.01% acetic acid), mean MIC
[13] = En. cloacae 001, MHB (melimine/Mel4 with 0.2% BSA, 0.01% acetic acid), mean MIC
[14] = E. coli 005, MHB (melimine/Mel4 with 0.2% BSA, 0.01% acetic acid), mean MIC
[15] = A. baumannii ATCC 19 606, MHB (melimine/Mel4 with 0.2% BSA, 0.01% acetic acid), mean MIC
[16] = K. pneumoniae JIE2709, MHB (melimine/Mel4 with 0.2% BSA, 0.01% acetic acid), mean MIC
[17] = A. baumannii 008, MHB (melimine/Mel4 with 0.2% BSA, 0.01% acetic acid), mean MIC
[18] = K. pneumoniae JIE4212, MHB (melimine/Mel4 with 0.2% BSA, 0.01% acetic acid), mean MIC
[19] = Enteroc. faecalis NCTC 13 379, MHB (melimine/Mel4 with 0.2% BSA, 0.01% acetic acid), mean MIC
[20] = E. coli 0010, MHB (melimine/Mel4 with 0.2% BSA, 0.01% acetic acid), mean MIC
[21] = E. coli 0015, MHB (melimine/Mel4 with 0.2% BSA, 0.01% acetic acid), mean MIC
[22] = E. coli 0011, MHB (melimine/Mel4 with 0.2% BSA, 0.01% acetic acid), mean MIC
[23] = En. cloacae 005, MHB (melimine/Mel4 with 0.2% BSA, 0.01% acetic acid), mean MIC
[24] = S. aureus 38, MHB (melimine/Mel4 with 0.2% BSA, 0.01% acetic acid), mean MIC
[25] = En. cloacae 003, MHB (melimine/Mel4 with 0.2% BSA, 0.01% acetic acid), mean MIC

In the case of `CCCCCCCCCCCCCNCC(=O)N(CCCCN)CC(=O)N(CC(=O)N(CC(=O)N(CCCCN)CC(=O)N(CCCCN)CC(N)=O)[C@@H](C)c1ccccc1)[C@@H](C)c1ccccc1` [TM15] (H-[N(tridecyl)Gly][Nlys][Nspe][Nspe][Nlys][Nlys]-NH2), the “Geometric mean MIC, all bacteria” value [1] is reported as 32.2 µg/mL, the “Geometric mean MIC, all bacteria” value ([1]; value in brackets) is reported as 33.4 µM and the “Fold increase in geometric mean MIC relative to TM8” value ([1]; bacteria) is reported as 4 fold. For the same compound, the MIC of peptidomimetics (S. aureus 117; 117) was 8.1 µM, the MIC of peptidomimetics (S. aureus 117; [3]) was 7.8 µg/mL and the MIC of peptidomimetics (S. aureus 105; 105) was 8.1 µM. For the same compound, the MIC of peptidomimetics (S. aureus 105; [4]) was 7.8 µg/mL, the MIC of peptidomimetics (A. baumannii 006; 006) was 64.9 µM and the MIC of peptidomimetics (A. baumannii 006; [5]) was 62.5 µg/mL. It also gave an MIC of peptidomimetics (P. aeruginosa 33; 33) of 16.2 µM, an MIC of peptidomimetics (P. aeruginosa 33; [6]) of 15.6 µg/mL and an MIC of peptidomimetics (P. aeruginosa AR-1270; AR-1270) of 32.5 µM. For the same compound, the MIC of peptidomimetics (P. aeruginosa AR-1270; [7]) was 31.3 µg/mL, the MIC of peptidomimetics (A. baumannii 005; 005) was 64.9 µM and the MIC of peptidomimetics (A. baumannii 005; [8]) was 62.5 µg/mL. For the same compound, the MIC of peptidomimetics (S. aureus 04; 04) was 8.1 µM, the MIC of peptidomimetics (S. aureus 04; [9]) was 7.8 µg/mL and the MIC of peptidomimetics (A. baumannii 007; 007) was 64.9 µM. It also gave an MIC of peptidomimetics (A. baumannii 007; [10]) of 62.5 µg/mL, an MIC of peptidomimetics (K. pneumoniae JIE2713; JIE2713) of 129.8 µM and an MIC of peptidomimetics (K. pneumoniae JIE2713; [11]) of 125 µg/mL. It also gave an MIC of peptidomimetics (P. aeruginosa 216; 216) of 16.2 µM, an MIC of peptidomimetics (P. aeruginosa 216; [12]) of 15.6 µg/mL and an MIC of peptidomimetics (En. cloacae 001) of 16.2 µM. It also gave an MIC of peptidomimetics (En. cloacae 001; [13]) of 15.6 µg/mL, an MIC of peptidomimetics (E. coli 005; 005) of 64.9 µM and an MIC of peptidomimetics (E. coli 005; [14]) of 62.5 µg/mL. It also gave an MIC of peptidomimetics (A. baumannii ATCC 19 606; [15]) of 62.5 µg/mL, an MIC of peptidomimetics (A. baumannii ATCC 19 606; ATCC 19) of 64.9 µM and an MIC of peptidomimetics (K. pneumoniae JIE2709; JIE2709) of 129.8 µM. The MIC of peptidomimetics (K. pneumoniae JIE2709; [16]) was 125 µg/mL, the MIC of peptidomimetics (A. baumannii 008; 008) was 32.5 µM and the MIC of peptidomimetics (A. baumannii 008; [17]) was 31.3 µg/mL. For the same compound, the MIC of peptidomimetics (K. pneumoniae JIE4212; JIE4212) was 64.9 µM, the MIC of peptidomimetics (K. pneumoniae JIE4212; [18]) was 62.5 µg/mL and the MIC of peptidomimetics [2, 19] was 31.3 µg/mL. The MIC of peptidomimetics ([2]; NCTC 13) was 32.4 µM, the MIC of peptidomimetics (E. coli 0010; 0010) was 64.9 µM and the MIC of peptidomimetics (E. coli 0010; [20]) was 62.5 µg/mL. The MIC of peptidomimetics (E. coli 0015; 0015) was 16.2 µM, the MIC of peptidomimetics (E. coli 0015; [21]) was 15.6 µg/mL and the MIC of peptidomimetics (E. coli 0011; 0011) was 64.9 µM. It also gave an MIC of peptidomimetics (E. coli 0011; [22]) of 62.5 µg/mL, an MIC of peptidomimetics (En. cloacae 005) of 32.5 µM and an MIC of peptidomimetics (En. cloacae 005; [23]) of 31.3 µg/mL. For the same compound, the MIC of peptidomimetics (S. aureus 38; 38) was 8.1 µM, the MIC of peptidomimetics (S. aureus 38; [24]) was 7.8 µg/mL and the MIC of peptidomimetics (En. cloacae 003) was 64.9 µM. The MIC of peptidomimetics (En. cloacae 003; [25]) was 62.5 µg/mL.

In the case of KNKRKRRRRRRGGRRRR [Mel4], the “Geometric mean MIC, all bacteria” value [1] is reported as 149.8 µg/mL, the “Geometric mean MIC, all bacteria” value ([1]; value in brackets) is reported as 63.8 µM and the MIC of peptidomimetics (S. aureus 117; [3]) is reported as 62.5 µg/mL. For the same compound, the MIC of peptidomimetics (S. aureus 105; [4]) was 62.5 µg/mL, the MIC of peptidomimetics (A. baumannii 006; [5]) was 62.5 µg/mL and the MIC of peptidomimetics (P. aeruginosa 33; [6]) was 62.5 µg/mL. For the same compound, the MIC of peptidomimetics (P. aeruginosa AR-1270; [7]) was 500 µg/mL, the MIC of peptidomimetics (A. baumannii 005; [8]) was 250 µg/mL and the MIC of peptidomimetics (S. aureus 04; [9]) was 62.5 µg/mL. It also gave an MIC of peptidomimetics (A. baumannii 007; [10]) of 250 µg/mL, an MIC of peptidomimetics (K. pneumoniae JIE2713; [11]) of 250 µg/mL and an MIC of peptidomimetics (P. aeruginosa 216; [12]) of 250 µg/mL. For the same compound, the MIC of peptidomimetics (En. cloacae 001; [13]) was 250 µg/mL, the MIC of peptidomimetics (E. coli 005; [14]) was 250 µg/mL and the MIC of peptidomimetics (A. baumannii ATCC 19 606; [15]) was 125 µg/mL. The MIC of peptidomimetics (K. pneumoniae JIE2709; [16]) was 62.5 µg/mL, the MIC of peptidomimetics (A. baumannii 008; [17]) was 250 µg/mL and the MIC of peptidomimetics (K. pneumoniae JIE4212; [18]) was 250 µg/mL. It also gave an MIC of peptidomimetics [2, 19] of 500 µg/mL, an MIC of peptidomimetics (E. coli 0010; [20]) of 250 µg/mL and an MIC of peptidomimetics (E. coli 0015; [21]) of 62.5 µg/mL. For the same compound, the MIC of peptidomimetics (E. coli 0011; [22]) was 62.5 µg/mL, the MIC of peptidomimetics (En. cloacae 005; [23]) was 250 µg/mL and the MIC of peptidomimetics (S. aureus 38; [24]) was 62.5 µg/mL. For the same compound, the MIC of peptidomimetics (En. cloacae 003; [25]) was 250 µg/mL.
